The text below walks through data of PubChem BioAssay AID216 (DTP/NCI, 2004).

This assay deals with BDF1 mice, P288 leukemia ip, survival T/C. Kind of assay: NCI In Vivo Anticancer Drug Screen. Data for tumor model P288 Lymphocytic Leukemia (intraperitoneal) in B6D2F1 (BDF1) mice. Particulars: endpoint: survival time, mean or median, higher = longer survival. The protocol: The antitumor activity of compounds was measured in mice bearing transplantable tumors. Survival or tumor size were measured and the results are expressed as the measurement made in the treated group (T) divided by the measurement made in the vehicle treated control group (C). The tumor model used in this assay is P288 Lymphocytic Leukemia (intraperitoneal) in B6D2F1 (BDF1) mice

Where [1] appears, read: dose: 2.0 mg/kg/injection, schedule: Q01DX010 (ip), vehicle: saline.
Setting [2] is: dose: 4.0 mg/kg/injection, schedule: Q01DX010 (ip), vehicle: saline.
The mark [3] stands for this setting: dose: 8.0 mg/kg/injection, schedule: Q01DX010 (ip), vehicle: saline.
[4] abbreviates: dose: 16.0 mg/kg/injection, schedule: Q01DX010 (ip), vehicle: saline.
Setting [5] is: dose: 100.0 mg/kg/injection, schedule: Q01DX010 (ip), vehicle: saline.
Setting [6] is: dose: 200.0 mg/kg/injection, schedule: Q01DX010 (ip), vehicle: saline.
Where [7] appears, read: dose: 0.31 mg/kg/injection, schedule: Q01DX Z (ip), vehicle: carboxymethylcellulose (CMC).
Setting [8] is: dose: 0.63 mg/kg/injection, schedule: Q01DX Z (ip), vehicle: carboxymethylcellulose (CMC).
Setting [9] is: dose: 1.25 mg/kg/injection, schedule: Q01DX Z (ip), vehicle: carboxymethylcellulose (CMC).
Where [10] appears, read: dose: 2.5 mg/kg/injection, schedule: Q01DX Z (ip), vehicle: carboxymethylcellulose (CMC).
Where [11] appears, read: dose: 12.5 mg/kg/injection, schedule: Q01DX Z (ip), vehicle: other.
The mark [12] stands for this setting: dose: 100.0 mg/kg/injection, schedule: Q01DX Z (ip), vehicle: other.
Where [13] appears, read: dose: 200.0 mg/kg/injection, schedule: Q01DX Z (ip), vehicle: other.

Structures are written as SMILES. “And” between values parts separate entries of the source, which are not always exact repeats. Equal entries are not always repeated. Toxic doses and inconclusive results are not listed.

Regarding `C=CC(CN1CC1)OC(C)=O` (stereo not given), the T/C (dose: 0.47 mg/kg/injection, schedule: Q01DX Z (ip), vehicle: carboxymethylcellulose (CMC)) was 109 % of control; the T/C (dose: 0.95 mg/kg/injection, schedule: Q01DX Z (ip), vehicle: carboxymethylcellulose (CMC)) is 101 % of control; the T/C (dose: 1.9 mg/kg/injection, schedule: Q01DX Z (ip), vehicle: carboxymethylcellulose (CMC)) is 115 % of control and 90 % of control; the T/C under setting [1] is 94 % of control; the T/C (dose: 3.8 mg/kg/injection, schedule: Q01DX Z (ip), vehicle: carboxymethylcellulose (CMC)) is 108 % of control; the T/C under setting [2] was 94 % of control. Further, the T/C is, setting by setting: under setting [3], 115 % of control; under setting [4], 115 % of control.
On to `CO[C@@H]1[C@@H](OC2OC(C)C(OC3CC(C)(O)C(OC(=O)CC(C)C)C(C)O3)C(N(C)C)C2O)[C@@H](CC=O)C[C@@H](C)C(=O)/C=C/C2O[C@H]2C[C@@H](C)OC(=O)C[C@H]1OC(C)=O` (stereo not given in full), for which the T/C was 94 % of control (dose: 37.5 mg/kg/injection, schedule: Q01DX010 (ip), vehicle: saline); 112 % of control (dose: 50.0 mg/kg/injection, schedule: Q01DX010 (ip), vehicle: saline); 88 % of control (dose: 75.0 mg/kg/injection, schedule: Q01DX010 (ip), vehicle: saline); 162 % of control under setting [5]; 88 % of control (dose: 150.0 mg/kg/injection, schedule: Q01DX010 (ip), vehicle: saline); 168 % of control under setting [6]. Moreover, the T/C (dose: 300.0 mg/kg/injection, schedule: Q01DX010 (ip), vehicle: saline) is 100 % of control.
Turning to `c1ccc(CCSc2ncnc3nc[nH]c23)cc1`, the T/C is 100 % of control (dose: 62.5 mg/kg/injection, schedule: Q01DX010 (ip), vehicle: saline); 100 % of control (dose: 125.0 mg/kg/injection, schedule: Q01DX010 (ip), vehicle: saline); 122 % of control and 100 % of control (dose: 250.0 mg/kg/injection, schedule: Q01DX010 (ip), vehicle: saline); 105 % of control and 122 % of control (dose: 500.0 mg/kg/injection, schedule: Q01DX010 (ip), vehicle: saline).
`NC(Cc1ccc(N(CCCl)CCCl)cc1)C(=O)O` (stereo not given): the T/C is 90 % of control under setting [7]; 111 % of control under setting [8]; 112 % of control (dose: 1.25 mg/kg/injection, schedule: Q01DX010 (ip), vehicle: saline); 110 % of control under setting [9]; 172 % of control under setting [1]; 105 % of control under setting [10]. Further, the T/C was 188 % of control under setting [2]; 150 % of control (dose: 5.0 mg/kg/injection, schedule: Q01DX010 (ip), vehicle: saline); 97 % of control (dose: 5.0 mg/kg/injection, schedule: Q01DX Z (ip), vehicle: carboxymethylcellulose (CMC)); 187 % of control (dose: 10.0 mg/kg/injection, schedule: Q01DX010 (ip), vehicle: saline); 97 % of control (dose: 10.0 mg/kg/injection, schedule: Q01DX Z (ip), vehicle: carboxymethylcellulose (CMC)); 88 % of control under setting [4].
In the case of `Nc1ncnc2c1ccn2C1OC(CO)C(O)C1O` (stereo not given), the T/C is 108 % of control and 92 % of control under setting [7]; 112 % of control and 93 % of control under setting [8]; 90 % of control under setting [9]; 106 % of control under setting [10].
Take `NC(CCSCc1ccc(N(CCCl)CCCl)cc1)C(=O)O` (stereo not given): the T/C runs as follows: (dose: 4.5 mg/kg/injection, schedule: Q01DX010 (ip), vehicle: saline) 88 % of control; (dose: 9.0 mg/kg/injection, schedule: Q01DX010 (ip), vehicle: saline) 100 % of control; (dose: 18.0 mg/kg/injection, schedule: Q01DX010 (ip), vehicle: saline) 88 % of control; (dose: 36.0 mg/kg/injection, schedule: Q01DX010 (ip), vehicle: saline) 100 % of control; (dose: 54.0 mg/kg/injection, schedule: Q01DX010 (ip), vehicle: saline) 161 % of control; (dose: 80.0 mg/kg/injection, schedule: Q01DX010 (ip), vehicle: saline) 172 % of control.
Turning to `Nc1nc2n[nH]nc2c(=O)[nH]1`, the T/C reads like this: under setting [11], 111 % of control; (dose: 25.0 mg/kg/injection, schedule: Q01DX010 (ip), vehicle: alkali diluted with saline) 100 % of control; under setting [12], 152 % of control and 183 % of control; under setting [13], 195 % of control.
For `C[C@@H]1C[C@H]2CC[C@H](O2)[C@H](C)C(=O)O[C@@H](C)C[C@@H]2CC[C@@H](O2)[C@@H](C)C(=O)O[C@H](C)C[C@H]2CC[C@H](O2)[C@H](C)C(=O)O[C@@H](C)C[C@@H]2CC[C@@H](O2)[C@@H](C)C(=O)O1`, the T/C is, setting by setting: (dose: 25.0 mg/kg/injection, schedule: Q01DX Z (ip), vehicle: carboxymethylcellulose (CMC)) 98 % of control; (dose: 50.0 mg/kg/injection, schedule: Q01DX Z (ip), vehicle: carboxymethylcellulose (CMC)) 96 % of control; (dose: 100.0 mg/kg/injection, schedule: Q01DX Z (ip), vehicle: carboxymethylcellulose (CMC)) 120 % of control; (dose: 200.0 mg/kg/injection, schedule: Q01DX Z (ip), vehicle: carboxymethylcellulose (CMC)) 111 % of control.
Consider `S=c1nc[nH]c2nc[nH]c12`, for which the T/C by setting is: (dose: 5.0 mg/kg/injection, schedule: Q01DX010 (ip), vehicle: alkali diluted with saline) 92 % of control; (dose: 10.0 mg/kg/injection, schedule: Q01DX010 (ip), vehicle: alkali diluted with saline) 94 % of control; under setting [11], 97 % of control; (dose: 20.0 mg/kg/injection, schedule: Q01DX010 (ip), vehicle: alkali diluted with saline) 86 % of control and 100 % of control; (dose: 25.0 mg/kg/injection, schedule: Q01DX Z (ip), vehicle: other) 93 % of control and 100 % of control; (dose: 40.0 mg/kg/injection, schedule: Q01DX010 (ip), vehicle: alkali diluted with saline) 110 % of control and 86 % of control. In addition, the T/C by setting is: (dose: 50.0 mg/kg/injection, schedule: Q01DX Z (ip), vehicle: other) 102 % of control and 94 % of control; (dose: 80.0 mg/kg/injection, schedule: Q01DX010 (ip), vehicle: alkali diluted with saline) 117 % of control and 86 % of control; under setting [12], 105 % of control and 118 % of control; under setting [13], 106 % of control and 100 % of control; (dose: 400.0 mg/kg/injection, schedule: Q01DX Z (ip), vehicle: other) 89 % of control.
In the case of `Nc1nc(=S)c2ncn(C3OC(CO)C(O)C3O)c2[nH]1` (stereo not given), the T/C was 105 % of control (dose: 1.0 mg/kg/injection, schedule: Q01DX010 (ip), vehicle: saline); 115 % of control under setting [1]; 118 % of control and 120 % of control under setting [2]; 112 % of control and 95 % of control under setting [3]; 106 % of control under setting [4]; 105 % of control (dose: 5.0 micrograms/kg/injection, schedule: Q01DX Z (ip), vehicle: carboxymethylcellulose (CMC)). Moreover, the T/C is 96 % of control (dose: 10.0 micrograms/kg/injection, schedule: Q01DX Z (ip), vehicle: carboxymethylcellulose (CMC)) and 94 % of control (dose: 20.0 micrograms/kg/injection, schedule: Q01DX Z (ip), vehicle: carboxymethylcellulose (CMC)).
In the case of `CS(=O)(=O)OCC(O)C(O)COS(C)(=O)=O` (stereo not given), the T/C is, setting by setting: (dose: 94.0 mg/kg/injection, schedule: Q01DX Z (ip), vehicle: saline) 111 % of control; under setting [5], 105 % of control; (dose: 187.5 mg/kg/injection, schedule: Q01DX Z (ip), vehicle: saline) 105 % of control; under setting [6], 94 % of control; (dose: 375.0 mg/kg/injection, schedule: Q01DX Z (ip), vehicle: saline) 117 % of control; (dose: 750.0 mg/kg/injection, schedule: Q01DX Z (ip), vehicle: saline) 111 % of control. For the setting “dose: 800.0 mg/kg/injection, schedule: Q01DX010 (ip), vehicle: saline”, the T/C was 105 % of control.
